# Test results as given in patent US7138361B2, “Herbicidal heterocycles” (E. I. du Pont de Nemours and Company, priority 2000, dated 2006).
# Assays:
# Assay type in all cases: in vivo
# [1] = system: velvetleaf (Abutilon theophrasti); test: Test C preemergence
# Source text: (§1) Seeds of plant species selected from bermudagrass (Cynodon dactylon), Surinam grass (Brachiaria decumbens), cocklebur (Xanthium strumarium), corn (Zea mays), crabgrass (Digitaria sanguinalis), woolly cupgrass (Eriochloa villosa), giant foxtail (Setaria faberii), goosegrass (Eleusine indica), johnsongrass (Sorghum halepense), kochia (Kochia scoparia), lambsquarters (Chenopodium album), morningglory (Ipomoea hederacea), yellow nutsedge (Cyperus esculentus), pigweed (Amaranthus retroflexus), common ragweed (Ambrosia elatior), soybean (Glycine max) and velvetleaf (Abutilon theophrasti) were planted and treated preemergence with test chemicals formulated in a non-phytotoxic solvent mixture which included a surfactant.
# (§2) At the same time, plants selected from these crop and weed species and also winter barley (Hordeum vulgare), blackgrass (Alopecurus myosuroides), canary grass (Phalaris minor), chickweed (Stellaria media), downy brome (Bromus tectorum), green foxtail (Setaria viridis), Italian ryegrass (Lolium multiflorum), wheat (Triticum aestivum), wild oat (Avena fatua) and windgrass (Apera spica-venti) were treated with postemergence applications of some of the test chemicals formulated in the same manner. Plants ranged in height from 2 to 18 cm (1- to 4-leaf stage) for postemergence treatments. Plant species in the flooded paddy test consisted of rice (Oryza saliva), smallflower flatsedge (Cyperus difformis), duck salad (Heteranthera limosa) and barnyardgrass (Echinochloa crus-galli) grown to the 2-leaf stage for testing. Treated plants and controls were maintained in a greenhouse for 12 to 14 days, after which time all species were compared to controls and visually evaluated. Plant response ratings, summarized in Table C, are based on a scale of 0 to 100 where 0 is no effect and 100 is complete control. A dash (-) response means no test result.
# [2] = system: common ragweed (Ambrosia elatior); test: Test C preemergence
# Source text: as §1, §2
# [3] = system: morningglory (Ipomoea hederacea); test: Test C preemergence
# Source text: as §1, §2
# [4] = system: giant foxtail (Setaria faberii); test: Test C preemergence
# Source text: as §1, §2
# [5] = system: bermudagrass (Cynodon dactylon); test: Test C preemergence
# Source text: as §1, §2
# [6] = system: crabgrass (Digitaria sanguinalis); test: Test C preemergence
# Source text: as §1, §2
# [7] = system: cocklebur (Xanthium strumarium); test: Test C preemergence
# Source text: as §1, §2
# [8] = system: goosegrass (Eleusine indica); test: Test C preemergence
# Source text: as §1, §2
# Sunflower = test: Test C preemergence; settings: Rate 125 g/ha; scale 0 to 100, 0 no effect, 100 complete control
# Source text: as §1, §2
# [9] = system: Surinam grass (Brachiaria decumbens); test: Test C preemergence
# Source text: as §1, §2
# [10] = system: velvetleaf (Abutilon theophrasti); test: Test B preemergence
# In short: (§3)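 Post-treatment, species sat 13–15 days under greenhouse conditions before visual scoring against controls, 0 (no effect) through 100 (complete control). Application preemergence to sown seeds or postemergence at 1- to 4-leaf stage, using a non-phytotoxic solvent/surfactant formulation.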
# [11] = system: giant foxtail (Setaria faberii); test: Test B preemergence
# In short: as §3
# [12] = system: barnyardgrass (Echinochloa crus-galli); test: Test B preemergence
# In short: as §3
# corn (Zea mays) = test: Test B preemergence
# In short: as §3
# [13] = system: crabgrass (Digitaria sanguinalis); test: Test B preemergence
# In short: as §3
# [14] = system: cocklebur (Xanthium strumarium); test: Test B preemergence
# In short: as §3
# [15] = system: lambsquarters (Chenopodium album); test: Test B preemergence
# In short: as §3
# [16] = system: morning glory (Ipomoea hederacea); test: Test B preemergence
# In short: as §3
# rice (Oryza saliva) = test: Test B preemergence
# In short: as §3
# [17] = system: pigweed (Amaranthus retroflexus); test: Test B preemergence
# In short: as §3
# [18] = system: Surinam grass (Brachiaria decumbens); test: Test B preemergence
# In short: as §3
# [19] = Rate 125 g/ha, scale 0 to 100, 0 no effect, 100 complete control
# [20] = preemergence, Rate 31 g/ha, scale 0 to 100
# [21] = preemergence, Rate 62 g/ha, scale 0 to 100
# [22] = preemergence, Rate 250 g/ha, scale 0 to 100, 0 no effect, 100 complete control
# [23] = Preemergence, Rate 500 g/ha, scale 0 to 100, 0 no effect, 100 complete control
# [24] = preemergence, Rate 125 g/ha, scale of 0 to 100 where 0 is no effect and 100 is complete control, 13 to 15 days
smiles,measurement,setting,value
CCCC(C)c1ccn(C2SCN(c3cccc(OC(F)(F)F)c3)C2=O)n1 (centres unmarked) [Compound 90],"Plant response rating, Velvetleaf",[1]; [19],0
same,"Plant response rating, Velvetleaf",[1]; [20],0
same,"Plant response rating, Velvetleaf",[1]; [21],0
same,"Plant response rating, Velvetleaf",[1]; [22],0
same,"Plant response rating, Ragweed, Common",[2]; [19],0
same,"Plant response rating, Ragweed, Common",[2]; [20],0
same,"Plant response rating, Ragweed, Common",[2]; [21],0
same,"Plant response rating, Ragweed, Common",[2]; [22],0
same,"Plant response rating, Morningglory",[3]; [19],0
same,"Plant response rating, Morningglory",[3]; [20],0
same,"Plant response rating, Morningglory",[3]; [21],0
same,"Plant response rating, Morningglory",[3]; [22],0
same,"Plant response rating, Foxtail, Giant",[4]; [19],0
same,"Plant response rating, Foxtail, Giant",[4]; [20],0
same,"Plant response rating, Foxtail, Giant",[4]; [21],40
same,"Plant response rating, Foxtail, Giant",[4]; [22],40
same,"Plant response rating, Bermudagrass",[5]; [19],100
same,"Plant response rating, Bermudagrass",[5]; [20],0
same,"Plant response rating, Bermudagrass",[5]; [21],0
same,"Plant response rating, Bermudagrass",[5]; [22],100
same,"Plant response rating, Crabgrass",[6]; [19],100
same,"Plant response rating, Crabgrass",[6]; [20],80
same,"Plant response rating, Crabgrass",[6]; [21],80
same,"Plant response rating, Crabgrass",[6]; [22],100
same,"Plant response rating, Cocklebur",[7]; [19],0
same,"Plant response rating, Cocklebur",[7]; [20],0
same,"Plant response rating, Cocklebur",[7]; [21],0
same,"Plant response rating, Cocklebur",[7]; [22],0
same,"Plant response rating, Goosegrass",[8]; [19],100
same,"Plant response rating, Goosegrass",[8]; [20],20
same,"Plant response rating, Goosegrass",[8]; [21],100
same,"Plant response rating, Goosegrass",[8]; [22],100
same,"Plant response rating, Sunflower",Sunflower,0
same,"Plant response rating, Surinam grass",[9]; [19],10
same,"Plant response rating, Surinam grass",[9]; [20],0
same,"Plant response rating, Surinam grass",[9]; [21],0
same,"Plant response rating, Surinam grass",[9]; [22],40
same,"Plant response rating, Velvetleaf",[10]; [23],0
same,"Plant response rating, Velvetleaf",[10]; [24],0
same,"Plant response rating, Foxtail, Giant",[11]; [23],100
same,"Plant response rating, Foxtail, Giant",[11]; [24],80
same,"Plant response rating, Barnyardgrass",[12]; [23],100
same,"Plant response rating, Barnyardgrass",[12]; [24],50
same,"Plant response rating, Corn",corn (Zea mays); [23],20
same,"Plant response rating, Corn",corn (Zea mays); [24],0
same,"Plant response rating, Crabgrass",[13]; [23],100
same,"Plant response rating, Crabgrass",[13]; [24],90
same,"Plant response rating, Cocklebur",[14]; [23],0
same,"Plant response rating, Cocklebur",[14]; [24],0
same,"Plant response rating, Lambsquarters",[15]; [23],100
same,"Plant response rating, Lambsquarters",[15]; [24],100
same,"Plant response rating, Morningglory",[16]; [23],0
same,"Plant response rating, Morningglory",[16]; [24],0
same,"Plant response rating, Rice",rice (Oryza saliva); [23],0
same,"Plant response rating, Rice",rice (Oryza saliva); [24],0
same,"Plant response rating, Pigweed",[17]; [23],100
same,"Plant response rating, Pigweed",[17]; [24],80
same,"Plant response rating, Surinam grass",[18]; [23],80
same,"Plant response rating, Surinam grass",[18]; [24],20
